Test results from US20080200439A1, “Methods and compositions for modulating BK channel activity and vasodilation” (University of Tennessee Research Foundation, priority 2006, published 2008).

Experiments:
[1] = tested on: pressurized cerebral arteries from wt mice; assay: Artery diameter measurement, pressurized cerebral arteries from wt C57BL/6 mice; parameters: species or system mouse
Description: Artery Diameter Measurement. Middle cerebral arteries were isolated from adult male Sprague-Dawley rats (=250 g) or 8- to 12-week-old β1-knockout and C57BL/6 control mice. Rats and mice were decapitated using a guillotine and sharp scissors, respectively. These procedures were approved by the Institutional Animal Care and Use Committee from The University of Tennessee Health Science Center, an AMLAC-accredited institution. Pressurization of arteries was performed as described (Liu et al., 2004). Endothelium was removed by passing an air bubble into the vessel lumen for 90 sec. Diameter changes were monitored through an inverted microscope (Nikon Eclipse TS100, Nikon Corp., Tokyo, Japan), recorded on camera (Sanyo VCB-3512T, Sanyo Electric Corp., Japan), and transferred to a computer. Diameter data were acquired and analyzed using IonWizard 4.4 software (IonOptics Corp., Milton, Mass., United States of America). […]
Data Analysis. […] Arterial diameter and electrophysiological data were analyzed with IonWizard 4.4 (IonOptics Corp., Milton, Mass., United States of America) and pCLAMP 8.0 (Molecular Devices, Union City, Calif., United States of America). […]
To determine the impact of LC targeting of BK β1-subunits on organ function, LC action on the arterial diameter of pressurized cerebral arteries was evaluated from β1-knockout vs. wt C57BU6 mice (controls). […]

cbv1+β4 channels = target: T1, cbv1+β4 channels (Rattus norvegicus, UniProt Q62976); assay: Patch-clamp of cbv1+β4 channels expressed in Xenopus oocytes; format: cell-based
T1 construct: Full-length cDNA coding for cbv1-subunits was cloned from rat cerebral artery myocytes by PCR; expressed in transfected cells; host or cells: Xenopus laevis oocytes (cRNA co-injection)
Description: cRNA Preparation and Injection into Xenopus Oocytes. Full-length cDNA coding for cbv1-subunits was cloned from rat cerebral artery myocytes by PCR and ligated to the PCR-XL-TOPO cloning vector (Invitrogen Corp., Carlsbad, Calif., United States of America) (Jaggar et al., 2005). cDNA coding for cbv1-subunits was cleaved from the cloning vector by BamHI (Invitrogen Corp., Carlsbad, Calif., United States of America) and XhoI (Promega, Madison, Wis., United States of America) and directly inserted into the pOX vector for expression in Xenopus oocytes. pOX-cbv1 was linearized with NotI (Promega, Madison, Wis., United States of America) and transcribed in vitro using T3 polymerase. […]
Electrophysiology. […] Single-channel and macroscopic currents were recorded from inside-out (I/O) or outside-out (O/O) patches. […] Nominal free Ca^2+ was calculated with MaxChelator Sliders (C. Patton, Stanford University, California, United States of America) and validated experimentally using Ca^2+-selective electrodes (Corning Incorporated Science Products Division, Corning, N.Y., United States of America). […]
Currents were recorded using an EPC8 amplifier (HEKA Electronics, Lambrecht/Pfalz, Germany) at 1 kHz using a low-pass, eight-pole Bessel filter 902LPF (Frequency Devices, Haverhill, Mass., United States of America). […]

T1 sequence (Q62976 1-1148 isoform Q62976-2): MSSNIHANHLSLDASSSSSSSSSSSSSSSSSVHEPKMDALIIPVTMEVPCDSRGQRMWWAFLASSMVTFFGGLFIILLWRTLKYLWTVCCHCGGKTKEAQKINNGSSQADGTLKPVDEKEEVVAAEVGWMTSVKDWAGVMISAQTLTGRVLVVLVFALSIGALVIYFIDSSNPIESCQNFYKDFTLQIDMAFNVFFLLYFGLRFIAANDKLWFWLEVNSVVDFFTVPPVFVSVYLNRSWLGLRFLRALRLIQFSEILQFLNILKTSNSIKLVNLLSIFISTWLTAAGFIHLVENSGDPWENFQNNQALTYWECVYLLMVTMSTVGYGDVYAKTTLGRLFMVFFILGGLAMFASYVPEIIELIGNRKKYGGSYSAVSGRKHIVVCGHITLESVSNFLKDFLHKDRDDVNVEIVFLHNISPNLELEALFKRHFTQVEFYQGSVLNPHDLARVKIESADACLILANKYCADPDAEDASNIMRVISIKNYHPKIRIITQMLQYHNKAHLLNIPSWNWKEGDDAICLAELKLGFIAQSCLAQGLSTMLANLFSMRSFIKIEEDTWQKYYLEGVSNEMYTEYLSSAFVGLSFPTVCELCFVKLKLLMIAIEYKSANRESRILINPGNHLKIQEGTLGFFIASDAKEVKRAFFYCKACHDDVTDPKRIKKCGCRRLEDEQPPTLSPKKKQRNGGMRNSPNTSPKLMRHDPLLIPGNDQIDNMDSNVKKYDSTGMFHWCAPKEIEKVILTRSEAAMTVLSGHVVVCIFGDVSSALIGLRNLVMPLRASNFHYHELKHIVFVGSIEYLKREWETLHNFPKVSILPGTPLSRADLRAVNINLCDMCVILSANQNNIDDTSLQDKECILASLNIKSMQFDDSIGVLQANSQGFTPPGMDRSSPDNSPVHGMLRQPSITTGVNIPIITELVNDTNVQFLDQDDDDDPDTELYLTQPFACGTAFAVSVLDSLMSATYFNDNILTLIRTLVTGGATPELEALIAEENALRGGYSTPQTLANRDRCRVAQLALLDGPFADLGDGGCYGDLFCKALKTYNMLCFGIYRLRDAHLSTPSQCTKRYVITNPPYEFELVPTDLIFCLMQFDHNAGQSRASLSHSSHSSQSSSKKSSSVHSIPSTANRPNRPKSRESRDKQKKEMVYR
T1 sequence (Q86W47 whole entry partner): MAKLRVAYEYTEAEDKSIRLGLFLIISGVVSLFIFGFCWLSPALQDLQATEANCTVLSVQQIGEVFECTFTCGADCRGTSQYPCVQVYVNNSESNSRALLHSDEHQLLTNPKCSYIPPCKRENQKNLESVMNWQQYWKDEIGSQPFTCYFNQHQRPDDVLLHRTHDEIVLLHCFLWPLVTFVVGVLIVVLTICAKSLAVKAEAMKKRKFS

Row | Molecule | Increase in diameter from initial diameter ([1]; 45 μM, wt mouse cerebral arteries) | remaining activity at 150 µM (cbv1+β4 channels; 150 μM, I/O patches, conditions identical to cbv1 and cbv1+β1, read-out: NPo (% of control)) [%] | Decrease from initial diameter (vasoconstriction) ([1]; 55 nM, within 15 min of application, control mice) [%] | Block of channel NPo (cbv1+β4 channels; 55 nM, protracted exposure)
1 | C[C@H](CCC(=O)O)[C@H]1CC[C@H]2[C@@H]3CC[C@@H]4C[C@H](O)CC[C@]4(C)[C@H]3CC[C@]12C [LC, 5β-cholanic acid 3α-ol] | +4.4±0.9% | 109 ± 11 |  | 
2 | iberiotoxin (QFTDVDCSVSKECWSVCKDLFGVDRGKCMGKKCRCYQ; UniProt P24663 1-37, looked up) [Ibtx, reference compound] |  |  | −8.7±4.2 | resistance to block
